According to WO2016116777A1, “Compositions and methods for treatment of chronic lymphocytic leukemia and small lymphocytic leukemia using a btk inhibitor” (dated 2016):
Entries after “also recorded” stand apart in the source; their conditions may differ.

Tests used:
[1] = test system: human platelet-mediated thrombosis; test: In vivo human platelet thrombus formation in VWF HA1 mutant mice (laser injury)
CD8+ T cell = test: Effect on CD8+ T cell viability
[2] = test system: cytochrome P450 (CYP) enzymes 3A4/5 and 2D6; conditions: cited from earlier work
[3] = biological target: T1, interleukin-2 inducible tyrosine kinase (ITK) (Homo sapiens, UniProt Q08881); conditions: cited from earlier work
T1 sequence (Q08881 1-620): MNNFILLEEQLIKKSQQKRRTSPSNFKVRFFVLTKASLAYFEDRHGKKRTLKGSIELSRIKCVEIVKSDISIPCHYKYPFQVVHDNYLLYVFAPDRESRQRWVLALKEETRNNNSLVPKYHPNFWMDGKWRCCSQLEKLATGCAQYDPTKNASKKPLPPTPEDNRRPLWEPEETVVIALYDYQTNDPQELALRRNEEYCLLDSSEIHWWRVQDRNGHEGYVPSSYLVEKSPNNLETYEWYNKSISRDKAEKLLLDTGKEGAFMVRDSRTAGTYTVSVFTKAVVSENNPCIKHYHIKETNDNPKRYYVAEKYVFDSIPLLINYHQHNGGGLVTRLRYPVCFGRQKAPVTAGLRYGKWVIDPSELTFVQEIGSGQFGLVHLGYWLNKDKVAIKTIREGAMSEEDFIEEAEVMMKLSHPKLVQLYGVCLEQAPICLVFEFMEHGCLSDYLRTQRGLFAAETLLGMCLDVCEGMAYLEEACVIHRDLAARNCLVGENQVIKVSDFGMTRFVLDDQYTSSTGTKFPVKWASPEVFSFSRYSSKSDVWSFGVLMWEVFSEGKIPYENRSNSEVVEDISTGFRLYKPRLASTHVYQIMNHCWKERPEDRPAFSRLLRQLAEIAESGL

[4] = test system: platelet collagen receptor glycoprotein VI (GPVI); test: GPVI platelet aggregation; type: cell-based, human
B cell receptor = test: In vitro potency in whole blood, inhibition of signals through the B cell receptor (CD69); type: cell-based; conditions: whole blood from four healthy donors, 2 hours incubation, anti-human IgD 18 hours, read-out: EC50, CD69 on gated CD19+ B cells
[5] = biological target: epidermal growth factor receptor (EGFR) (Homo sapiens, UniProt P00533); conditions: in vitro; cited from earlier work
Chain of epidermal growth factor receptor (EGFR) (P00533 25-1210): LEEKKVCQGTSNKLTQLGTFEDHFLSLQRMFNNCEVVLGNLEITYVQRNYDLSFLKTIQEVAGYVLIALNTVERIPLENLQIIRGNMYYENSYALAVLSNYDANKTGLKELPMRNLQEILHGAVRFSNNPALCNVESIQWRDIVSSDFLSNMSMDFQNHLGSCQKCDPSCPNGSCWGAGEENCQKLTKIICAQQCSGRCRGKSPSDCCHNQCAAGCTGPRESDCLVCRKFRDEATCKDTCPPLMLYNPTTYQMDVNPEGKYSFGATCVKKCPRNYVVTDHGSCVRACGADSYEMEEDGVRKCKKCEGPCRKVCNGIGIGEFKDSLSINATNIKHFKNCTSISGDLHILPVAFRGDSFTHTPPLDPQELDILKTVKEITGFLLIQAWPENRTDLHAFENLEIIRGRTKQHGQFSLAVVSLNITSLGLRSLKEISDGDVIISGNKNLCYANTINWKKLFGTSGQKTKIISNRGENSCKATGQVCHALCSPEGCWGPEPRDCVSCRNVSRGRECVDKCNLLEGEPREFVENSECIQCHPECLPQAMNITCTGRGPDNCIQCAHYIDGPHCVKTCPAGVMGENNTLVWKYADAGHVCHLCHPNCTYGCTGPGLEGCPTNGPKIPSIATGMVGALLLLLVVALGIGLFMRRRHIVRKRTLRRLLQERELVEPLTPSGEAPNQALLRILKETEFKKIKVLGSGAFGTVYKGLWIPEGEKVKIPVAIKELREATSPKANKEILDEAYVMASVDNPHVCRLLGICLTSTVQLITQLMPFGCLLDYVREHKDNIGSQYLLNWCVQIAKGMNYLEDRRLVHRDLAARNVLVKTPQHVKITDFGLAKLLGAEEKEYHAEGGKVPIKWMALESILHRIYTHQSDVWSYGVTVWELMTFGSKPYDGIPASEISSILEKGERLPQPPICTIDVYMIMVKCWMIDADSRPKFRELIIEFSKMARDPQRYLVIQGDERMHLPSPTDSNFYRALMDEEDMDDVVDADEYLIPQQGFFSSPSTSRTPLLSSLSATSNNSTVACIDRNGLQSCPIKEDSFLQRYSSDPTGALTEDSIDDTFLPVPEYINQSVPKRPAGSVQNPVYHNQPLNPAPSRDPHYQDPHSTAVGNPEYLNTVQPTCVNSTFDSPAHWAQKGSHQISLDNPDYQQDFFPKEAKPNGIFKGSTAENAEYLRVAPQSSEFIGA

NK cells = conditions: cited from earlier work
regulatory T cell (Treg) = test: Effect on Treg development
[6] = test system: NK cells (CD56+/CD107a+) with MEC-1 cells; test: NK cell degranulation/ADCC whole blood assay with obinutuzumab-opsonised MEC-1 cells; type: cell-based, human; conditions: 0.1, 1 and 10 μM, MEC-1 opsonised with obinutuzumab 1 μg/mL, 4 hours
Th17 cells = test: Effect on Th17 cells
CLL = conditions: cited from earlier work
[7] = Phase 1, previously treated CLL, monotherapy
[8] = Phase 1 portion, relapsed/refractory CLL, n=13

## C=CC(=O)Nc1cccc(Nc2nc(Nc3ccc(OCCOC)cc3)ncc2F)c1 [CC-292]
[1]
  effect on human platelet-mediated thrombus formation: interfere with thrombus formation; also recorded: effect similar to ibrutinib

## C=CC(=O)N1CCC[C@@H](n2nc(-c3ccc(Oc4ccccc4)cc3)c3c(N)ncnc32)C1 [ibrutinib]
CD8+ T cell
  effect on CD8+ T cell viability: strongly affects CD8 T cell viability at higher doses; also recorded: strong, negative effect
[2]
  CYP substrate: substrate for both cytochrome P450 (CYP) enzymes 3A4/5 and 2D6
[3]
  ITK binding: irreversibly binds ITK
[4]
  GPVI platelet aggregation: significantly inhibits GPVI platelet aggregation
[4]; Homo sapiens, Platelet
  IC50: 130 nM
B cell receptor
  EC50: 6.1 nM
[5]
  EGFR inhibition: inhibits epidermal growth factor receptor (EGFR)
NK cells
  effect on rituximab ADCC mediated by NK cells: antagonizes rituximab antibody-dependent cell mediated cytotoxicity (ADCC); also recorded: undesirably antagonizes rituximab ADCC effects
Regulatory T cell (Treg)
  effect on Treg development: strongly increases Treg development; also recorded: increase in Treg development
[6]
  percentage of CD56+/CD107a+ NK cells / antagonism: strong reduction
Th17 cells
  effect on Th17 cells: strongly inhibits Thl7 cells; also recorded: profound inhibition

## obinutuzumab: humanized monoclonal antibody directed against CD20
CLL; [7]
  MRD-negative complete response, number: 1
  response rate: 62%
CLL; [8]
  patients with Grade 3 IRRs: 15%
  patients with Grade 4 IRRs: no Grade 4
  patients with IRRs, all grade: 100%
CLL; Phase 2 portion, relapsed/refractory CLL
  patients developing IRR: 95%
CLL; Phase 2 portion
  Grade 3 reactions among those: 25%
  cases developing symptoms of hypotension: 60%
